According to patent US10231992B2, “Antioxidant composition” (priority 2010, dated 2019):

Experiments:
human fibroblasts = assay: MTT cytotoxicity and proliferation assay, limit concentrations of NAC and turmeric; assay type: cell-based
Method: The proliferation assay was carried out using the MTT colorimetric assay (Roche 11465007001). MTT is a yellow tetrazolium salt which forms formazan crystals in active cells. The formazan crystals are solubilized and the resulting color is quantified by means of spectrophotometry at 550 nm. […] The cells were maintained at 37° C. in an incubation stove. The following day, the treatments of NAC and Turmeric were added to the cell culture using a volume of 200 μL per well. The cell culture was left to incubate for 24, 48 and 72 hours. After each incubation time, 20 μL of MTT (a final concentration of 0.5 mg/mL) were added to each well. The plate was maintained for 4 hours in the incubation stove in order to allow the formation of formazan crystals. Subsequently, 100 μL of solubilizer was added to each well and the plate was left in the incubation stove until the following day.

[1] = tested on: reactive oxygen metabolites (ROMs) in human fibroblasts; assay: Intracellular ROM quantification with 2',7'-dichlorofluorescein diacetate probe in oxidized fibroblasts; assay type: cell-based; conditions: 1 mM H2O2; for F.U. (fluorescence units) / % decrease of ROS: 1% LBG, 5 mM NAC, 5 μM Turmeric; for F.U. (fluorescence units): fluorescence at 538 nm, 20 minutes after the start of the oxidation; for % decrease of ROS: with respect to the oxidized control
Method: To quantify the ROM-decreasing or antioxidant capacity of LBG, NAC and turmeric, the production of the ROMs generated upon oxidizing a culture of fibroblasts with a high concentration of hydrogen peroxide was measured.
The intracellular ROMs were quantified by means of the labeling thereof with the fluorescent probe 2′,7′-dichlorofluorescein diacetate (Molecular Probes D399). This probe is capable of emitting fluorescence at 538 nm when it is oxidized with reactive oxygen metabolites. The cell oxidation was carried out with 1 mM hydrogen peroxide.
The day before the assay, the fibroblasts were seeded in a 96-well plate at a density of 11500 cells per well. All the assays were performed in triplicate.
The treatments were prepared on the day of the experiment and the hydrogen peroxide was added just before the assay.
A solution of locust bean gum of 1% in distilled water was prepared and heated above 100° C. until completing dissolution of the gum.
The solution was then centrifuged for 20 minutes at 4000 rpm to remove the impurities from the mixture. The solution of the locust bean gum was lyophilized. The lyophilisate was dissolved in cell growth medium (DMEM+10% FBS) at a concentration of 1%.
Before adding the treatments and the hydrogen peroxide, the cells were labeled with the fluorescent probe at a concentration of 50 μM for 30 minutes in darkness.
The NAC and Turmeric treatments and the hydrogen peroxide were prepared just before starting the assay. To prepare the turmeric stock, it is necessary to know the purity of the Turmeric batch available and readjust the calculation to add the necessary concentration.
After labeling the cells, the antioxidant treatments and the hydrogen peroxide were added.
The fluorescence emitted at 538 nm by the probe was collected 20 minutes after the start of the oxidation.
However, in this case the decrease in intracellular ROM levels was taken as a reference with respect to the oxidized control.

| SMILES | IC50 (concentration causing a 50% cell decrease with respect to the control) (human fibroblasts; NAC studied from 0.5 mM to 20 mM, 72 hours) | proliferative rate in the fibroblasts (human fibroblasts; concentrations of 1 and 5 mM) | cell proliferation with respect to the control (human fibroblasts; concentrations of 10 and 20 mM) | maximum limit of concentration (human fibroblasts; toxicity limit from MTT assay) [mM] | intracellular ROM levels [1] | F.U. (fluorescence units) [1] | % decrease of ROS [1] [%] | IC50 (human fibroblasts; Homo sapiens, Fibroblast, 72 h, read-out: IC50 (concentration causing a 50% cell decrease with respect to the control)) [µM] | toxicity (human fibroblasts; concentration of 10 μM) | toxicity (human fibroblasts; concentrations of 1 and 5 μM) | toxicity (human fibroblasts; concentrations of 20 and 50 μM) | maximum limit of use in the mixture (human fibroblasts; toxicity limit from MTT assay) [µM] |
| --- | --- | --- | --- | --- | --- | --- | --- | --- | --- | --- | --- | --- |
| CC(=O)N[C@@H](CS)C(=O)O [NAC, N-acetyl cysteine, reference compound] | none of the concentrations studied reached IC50 | improvement of the proliferative rate | progressively reduced cell proliferation | 10 | significant decrease of the intracellular ROM levels | 1.82 | 85 | – | – | – | – | – |
| COc1cc(/C=C/C(=O)/C=C(O)/C=C/c2ccc(O)c(OC)c2)ccc1O [Turmeric, curcumin] | – | – | – | – | significant decrease of the intracellular ROM levels | 2.31 | 81 | 7.5 | exceeds the limit at 72 hours | no toxic effects were observed | toxicity from the first 24 hours, exceeding the IC50 limit | 7.5 |
